Experimental data published in ChEMBL document CHEMBL1201862, “PubChem BioAssay data set” (2004).
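Exposure lasted 48 hours, with cells grown in 96-well plates and compounds tested at five concentrations. GI50: concentration for 50% inhibition of growth.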 The source made the active and inactive calls. Cut-off read from the data, not from the text of the source: active = GI50 up to about 1.1 µM and inactive = higher. Where a SMILES comes first, the peptide text is derived from it. [ ]: non-standard residue; d: D form. Ac5c = NC1(C(=O)O)CCCC1

Legend:
Assay in all cases: NCI anticancer screen, dose series, 48 h
MDA-MB-231 = tested on: MDA-MB-231
SNB-75 = tested on: SNB-75
786-0 = tested on: 786-0
SW-620 = tested on: SW-620
SNB-19 = tested on: SNB-19
Hs-578T = tested on: Hs-578T
OVCAR-4 = tested on: OVCAR-4
A549 = tested on: A549
COLO 205 = tested on: COLO 205
UO-31 = tested on: UO-31
SF-295 = tested on: SF-295
BT-549 = tested on: BT-549
EKVX = tested on: EKVX
UACC-62 = tested on: UACC-62
OVCAR-5 = tested on: OVCAR-5
PC-3 = tested on: PC-3
Malme-3M = tested on: Malme-3M
MDA-MB-435 = tested on: MDA-MB-435
CAKI-1 = tested on: CAKI-1
K562 = tested on: K562

Measured: GI50

O=S(=O)(c1cnccc1N1CCN(CCO)CC1)N1CCCC1
inactive: MDA-MB-231 > 100 µM | SNB-75 > 100 µM | 786-0 > 100 µM | SW-620 > 100 µM | SNB-19 > 100 µM | Hs-578T > 100 µM | OVCAR-4 > 100 µM | A549 > 100 µM | COLO 205 > 100 µM | UO-31 > 100 µM | SF-295 > 100 µM | BT-549 > 100 µM | EKVX > 100 µM | UACC-62 > 100 µM | OVCAR-5 > 100 µM | PC-3 > 100 µM | Malme-3M > 100 µM | MDA-MB-435 > 100 µM | CAKI-1 > 100 µM | K562 > 100 µM

CC(C)c1nc2c(Cl)c3ncccc3cc2[nH]c1=O
inactive: MDA-MB-231 73.6 µM | SNB-75 26.4 µM | 786-0 > 100 µM | SW-620 > 100 µM | SNB-19 > 100 µM | Hs-578T 25.8 µM | OVCAR-4 67.8 µM | A549 > 100 µM | COLO 205 > 100 µM | UO-31 > 100 µM | SF-295 > 100 µM | BT-549 54.5 µM | EKVX 9.71 µM | UACC-62 > 100 µM | OVCAR-5 > 100 µM | PC-3 > 100 µM | Malme-3M > 100 µM | MDA-MB-435 > 100 µM | CAKI-1 94.6 µM | K562 > 100 µM

CC(C)[Si](OC/C(=C/COC(C)(C)C)[C@H]1CC=C(C(=O)c2ccccc2N2CN(C)C(=O)N(C)C2)C1)(C(C)C)C(C)C
inactive: MDA-MB-231 11.9 µM | SNB-75 14.1 µM | 786-0 6.61 µM | SW-620 3.17 µM | SNB-19 12.1 µM | Hs-578T 2.6 µM | OVCAR-4 13.8 µM | A549 9.53 µM | COLO 205 15.7 µM | UO-31 11.1 µM | SF-295 12.9 µM | BT-549 13.4 µM | EKVX 15.9 µM | UACC-62 10.8 µM | OVCAR-5 14.2 µM | PC-3 5.6 µM | Malme-3M 7.94 µM | MDA-MB-435 6.04 µM | CAKI-1 4.29 µM
active: K562 1.08 µM

O=C1CSC(c2cc3cc(Br)ccc3nc2Cl)N1c1ccc(F)c(Cl)c1 (stereo not given)
inactive: MDA-MB-231 > 50 µM | SNB-75 > 50 µM | 786-0 27.4 µM | SW-620 28.5 µM | SNB-19 > 50 µM | Hs-578T > 50 µM | OVCAR-4 > 50 µM | A549 > 50 µM | COLO 205 > 50 µM | UO-31 > 50 µM | SF-295 > 50 µM | BT-549 > 50 µM | EKVX 25.1 µM | UACC-62 > 50 µM | OVCAR-5 > 50 µM | PC-3 29.9 µM | Malme-3M > 50 µM | MDA-MB-435 25.1 µM | CAKI-1 > 50 µM | K562 18.6 µM

Cc1ccc(NC(c2ccccc2)c2ccc3cccnc3c2O)cc1 (stereo not given)
inactive: MDA-MB-231 4.55 µM | SNB-75 6.37 µM | 786-0 3.61 µM | SW-620 6.34 µM | SNB-19 6.37 µM | Hs-578T 9.02 µM | OVCAR-4 3.85 µM | A549 5.56 µM | COLO 205 4.68 µM | UO-31 3.33 µM | SF-295 3.72 µM | BT-549 4.33 µM | EKVX 3.47 µM | UACC-62 3.84 µM | OVCAR-5 7.11 µM | PC-3 3.66 µM | Malme-3M 3.05 µM | MDA-MB-435 5.87 µM | CAKI-1 5.11 µM | K562 3.02 µM

C/C1=C/C2OC(=O)C3(C)C2C(CC2(C)OC1=CC2=O)OC3(O)C(C)C (stereo not given)
inactive: MDA-MB-231 > 100 µM | SNB-75 > 61.1 µM | 786-0 26.1 µM | SW-620 23.7 µM | SNB-19 42.5 µM | Hs-578T 59 µM | OVCAR-4 25.1 µM | A549 > 56 µM | COLO 205 36.6 µM | UO-31 84.1 µM | SF-295 29.4 µM | BT-549 5.2 µM | EKVX 47.6 µM | UACC-62 20.6 µM | OVCAR-5 34.8 µM | PC-3 40.8 µM | Malme-3M 33.5 µM | MDA-MB-435 38.3 µM | CAKI-1 30.5 µM | K562 32.7 µM

COc1cc2c(cc1OC)[C@H](C)N1CCc3cc(OC)c(OC)cc3[C@@H]1C2
inactive: MDA-MB-231 > 100 µM | SNB-75 > 100 µM | 786-0 > 100 µM | SW-620 > 100 µM | SNB-19 > 100 µM | Hs-578T > 100 µM | OVCAR-4 > 100 µM | A549 > 100 µM | COLO 205 > 100 µM | UO-31 > 100 µM | SF-295 > 100 µM | BT-549 > 100 µM | EKVX > 100 µM | UACC-62 > 100 µM | OVCAR-5 > 100 µM | PC-3 > 100 µM | Malme-3M > 100 µM | MDA-MB-435 > 100 µM | CAKI-1 > 100 µM | K562 > 100 µM

COc1ccc(NC(C(N)=O)c2cc3cc(Br)ccc3nc2Cl)cc1 (stereo not given)
inactive: MDA-MB-231 90.6 µM | SNB-75 81.5 µM | 786-0 > 100 µM | SW-620 38.7 µM | SNB-19 > 100 µM | Hs-578T > 100 µM | OVCAR-4 68.4 µM | A549 91.8 µM | COLO 205 41 µM | UO-31 > 100 µM | SF-295 38.4 µM | BT-549 31.4 µM | EKVX 28.1 µM | UACC-62 52.7 µM | OVCAR-5 > 100 µM | PC-3 44.6 µM | Malme-3M > 100 µM | MDA-MB-435 22.1 µM | CAKI-1 > 100 µM | K562 26.7 µM

NC1(C(=O)NC2(C(=O)O)CCCC2)CCCC1 (H-[Ac5c]-[Ac5c]-OH)
inactive: MDA-MB-231 > 100 µM | SNB-75 > 100 µM | 786-0 > 100 µM | SW-620 > 100 µM | SNB-19 > 100 µM | Hs-578T > 100 µM | OVCAR-4 > 100 µM | A549 > 100 µM | COLO 205 > 100 µM | UO-31 > 100 µM | SF-295 > 100 µM | BT-549 > 100 µM | EKVX > 100 µM | UACC-62 > 100 µM | OVCAR-5 > 100 µM | PC-3 > 100 µM | Malme-3M > 100 µM | MDA-MB-435 > 100 µM | CAKI-1 > 100 µM | K562 > 100 µM

CCCC[C@H]1C(=O)O[C@H](C)[C@H](NC(=O)c2cccc(NC=O)c2O)C(=O)O[C@@H](C)[C@@H]1OC(=O)CC(C)C [ANTIMYCIN A3]
active: A549 0.0441 µM | SF-295 < 0.0421 µM | EKVX 0.321 µM | UACC-62 0.16 µM | PC-3 0.278 µM | MDA-MB-435 1.11 µM | K562 < 0.0123 µM
inactive: MDA-MB-231 4.37 µM | SNB-75 21.4 µM | 786-0 9.08 µM | SW-620 8.18 µM | SNB-19 2.91 µM | Hs-578T 13 µM | OVCAR-4 2.37 µM | COLO 205 3.34 µM | UO-31 4.94 µM | BT-549 1.68 µM | OVCAR-5 17 µM | Malme-3M 7.28 µM | CAKI-1 11.9 µM
